Reference: US20200323905A1, “METHODS AND COMPOSITIONS FOR MODULATING THE IMMUNE SYSTEM” (Trustees of Boston University, priority 2019, published 2020)
Entries after “also recorded” stand apart in the source; their conditions may differ.

How the values were obtained:
Format in all cases: cell-based, mouse
WT CD4+ T cells = assay: T-cell activation marker expression by flow cytometry after IL-2 and CD3/CD28 stimulation
Protocol: (§1) Spleens from WT or Yap-cKO mice were pushed through a 70 μm mesh (Falcon) using an insulin syringe plunger and washed with PBS. Cells were treated with ACK red blood cell lysis buffer, and splenocyte single-cell suspensions were prepared for magnetic separation or stained for sorting by flow cytometry. CD4^+ or CD8^+ T-cell enrichment was performed using magnetic beads (Miltenyi Biotec or STEMCELL Technologies). Naïve CD4^+ T cells were isolated using a naïve CD4^+ T-cell isolation kit (Miltenyi Biotec).
(§2) Isolated splenocytes or tumor digests were washed with PBS and stained with the LIVE/DEAD fixable near-IR dead cell stain kit (Invitrogen). Cells were then washed with stain buffer (BD), resuspended in stain buffer containing Fc block (BD), and incubated for 5 minutes at 4° C. Surface antibodies were added in predetermined concentrations, and cells were incubated for 30 minutes at 4° C. or 15 minutes at room temperature, before being washed with BD stain buffer and resuspended in PBS for flow cytometric analysis. For intracellular cytokine staining, cells were fixed and permeabilized using the BD Cytofix/Cytoperm Fixation/Permeabilization kit (BD) after dead cell dye and surface staining. For transcription factor staining, the eBioscience Foxp3/transcription factor staining buffer set was used. Flow cytometry analyses were performed on BD LSRII at Boston University School of Medicine Flow Cytometry Facility or at the University of Maryland School of Medicine Center for Innovative Biomedical Resources, Flow Cytometry Shared Service and analyzed by Flowlo (TreeStar).
(§3) Cells were cultured and stimulated in 96-well plates at 1×10^5 cells per well. Plates were coated with anti-CD3 antibody (Biolegend) at concentrations of 0, 0.125, 0.25, 0.5, and 1 μg/ml at 4° C. overnight and were washed twice with PBS before incubation. Cells were stimulated in the anti-CD3-coated plates with soluble anti-CD28 at 2 μg/ml (Biolegend). On days 1 and 3, cells were stained with dead cell dye as well as antibodies recognizing the lineage and activation markers CD3 BUV737 (BD), CD4 BUV395 (BD), CD8 PerCP-Cy5.5 (Biolegend), CD69 PE (Biolegend), CD44 BV650 (Biolegend), and CD25 APC (Biolegend). For proliferation assays, CD4^+ or CD8^+ T cells were isolated and stained using the CellTrace Violet or CFSE Cell Proliferation Kit (Life Technologies). Briefly, purified cells were washed with PBS and incubated with CellTrace dye for 20 minutes at 37° C. protected from light. After 20 minutes, complete RMPI medium was added to the cell suspension, and the cells were incubated 5 minutes further before being washed and resuspended in complete RPMI medium. […] On days 1 and 3, cells were stained with dead cell dye, and proliferation was measured at the same time.

WT CD8+ T cells = assay: as above
Protocol: as §1, §2, §3

WT CD4+ and CD8+ T cells = assay: T-cell proliferation assay (CellTrace Violet or CFSE); details: DMSO- versus verteporfin-treated, 3 days post stimulation with IL-2, anti-CD3 and anti-CD28 (FIG. 6K)
Protocol: Cells were cultured and stimulated in 96-well plates at 1×10^5 cells per well. Plates were coated with anti-CD3 antibody (Biolegend) at concentrations of 0, 0.125, 0.25, 0.5, and 1 μg/ml at 4° C. overnight and were washed twice with PBS before incubation. Cells were stimulated in the anti-CD3-coated plates with soluble anti-CD28 at 2 μg/ml (Biolegend). On days 1 and 3, cells were stained with dead cell dye as well as antibodies recognizing the lineage and activation markers CD3 BUV737 (BD), CD4 BUV395 (BD), CD8 PerCP-Cy5.5 (Biolegend), CD69 PE (Biolegend), CD44 BV650 (Biolegend), and CD25 APC (Biolegend). For proliferation assays, CD4^+ or CD8^+ T cells were isolated and stained using the CellTrace Violet or CFSE Cell Proliferation Kit (Life Technologies). Briefly, purified cells were washed with PBS and incubated with CellTrace dye for 20 minutes at 37° C. protected from light. After 20 minutes, complete RMPI medium was added to the cell suspension, and the cells were incubated 5 minutes further before being washed and resuspended in complete RPMI medium. Cells were cultured in 96-well plates at 1×10^5 cells per well and were stimulated using anti-CD3/CD28 dynabeads (Gibco) at a 1:1 ratio with T cells. On days 1 and 3, cells were stained with dead cell dye, and proliferation was measured at the same time.

## Verteporfin
WT CD4+ T cells; 72 hours (3 days) post IL-2 and CD3/CD28 stimulation, increasing concentration of verteporfin (FIG. 6I, FIG. 11E)
  CD69 expression on WT CD4+ T cells: increased levels of early activation markers
WT CD4+ T cells; 72 hours post IL-2 and CD3/CD28 stimulation, increasing concentration of verteporfin (FIG. 1I)
  CD71 expression on WT CD4+ T cells: increased levels of early activation markers CD71
WT CD8+ T cells; 72 hours (3 days) post IL-2 and CD3/CD28 stimulation, increasing concentration of verteporfin (FIG. 6J, FIG. 11F)
  CD69 expression on WT CD8+ T cells: increased levels of early activation markers
WT CD8+ T cells; 72 hours post IL-2 and CD3/CD28 stimulation, increasing concentration of verteporfin (FIG. 1J)
  CD71 expression on WT CD8+ T cells: increased levels of early activation markers CD71
WT CD4+ and CD8+ T cells
  Proliferation of T cells isolated from WT mice: did not significantly affect proliferation; also recorded: neither Yap deletion nor verteporfin treatment significantly impacted T-cell proliferation
